Measurements reported in ChEMBL document CHEMBL4007472, “Identification of novel TACE inhibitors compatible with topical application” (Bioorg Med Chem Lett, 2017).

Tests used:
[1] = target: T1, Disintegrin and metalloproteinase domain-containing protein 17 (Homo sapiens, UniProt P78536); assay: Inhibition of recombinant human TACE catalytic domain using Mca-Pro-Leu-Ala-Gln-Ala-Val-Dpa-Arg-Ser-Ser-Ser-Arg-NH2 as substrate after 2 hrs by fluorescence assay
[2] = target: T1, Disintegrin and metalloproteinase domain-containing protein 17; assay: Inhibition of recombinant TACE catalytic domain (unknown origin) using Abz-LAQAVRSSSR-Dpa as substrate preincubated for 10 mins followed by substrate addition measured after 10 mins by FRET assay
[3] = target: Disintegrin and metalloproteinase domain-containing protein 17 (Mus musculus, UniProt Q9Z0F8); assay: Inhibition of TACE in mouse RAW264.7 cells assessed as inhibition of LPS-stimulated TNFalpha production pretreated for 1 hr followed by LPS stimulation for 4 hrs by ELISA; type: cell-based; conditions: read-out: IC50
Disintegrin and metalloproteinase domain-containing protein 17 (Mus musculus, UniProt Q9Z0F8), sequence (Q9Z0F8 whole entry, the tested form may be a part): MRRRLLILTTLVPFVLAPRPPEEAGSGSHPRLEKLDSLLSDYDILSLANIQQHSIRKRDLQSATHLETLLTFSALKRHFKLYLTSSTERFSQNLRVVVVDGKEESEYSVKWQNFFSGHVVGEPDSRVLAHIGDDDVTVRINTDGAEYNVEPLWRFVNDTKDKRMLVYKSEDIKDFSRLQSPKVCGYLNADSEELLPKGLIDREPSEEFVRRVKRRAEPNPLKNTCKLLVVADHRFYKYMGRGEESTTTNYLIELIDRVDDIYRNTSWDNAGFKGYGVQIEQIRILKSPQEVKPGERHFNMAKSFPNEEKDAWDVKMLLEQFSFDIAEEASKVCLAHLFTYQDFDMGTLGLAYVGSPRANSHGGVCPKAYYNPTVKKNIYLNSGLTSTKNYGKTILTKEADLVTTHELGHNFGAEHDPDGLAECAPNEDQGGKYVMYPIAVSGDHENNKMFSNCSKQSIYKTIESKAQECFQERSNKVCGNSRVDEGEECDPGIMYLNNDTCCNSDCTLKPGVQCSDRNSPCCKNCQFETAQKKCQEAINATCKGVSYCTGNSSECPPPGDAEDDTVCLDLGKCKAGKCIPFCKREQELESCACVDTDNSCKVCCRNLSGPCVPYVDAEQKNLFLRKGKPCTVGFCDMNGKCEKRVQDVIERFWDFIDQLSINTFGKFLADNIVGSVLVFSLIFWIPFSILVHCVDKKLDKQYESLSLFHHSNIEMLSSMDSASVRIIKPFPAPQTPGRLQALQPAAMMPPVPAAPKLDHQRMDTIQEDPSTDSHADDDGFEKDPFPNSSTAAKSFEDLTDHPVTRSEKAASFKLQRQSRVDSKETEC

T1 sequence (P78536 whole entry, the tested form may be a part): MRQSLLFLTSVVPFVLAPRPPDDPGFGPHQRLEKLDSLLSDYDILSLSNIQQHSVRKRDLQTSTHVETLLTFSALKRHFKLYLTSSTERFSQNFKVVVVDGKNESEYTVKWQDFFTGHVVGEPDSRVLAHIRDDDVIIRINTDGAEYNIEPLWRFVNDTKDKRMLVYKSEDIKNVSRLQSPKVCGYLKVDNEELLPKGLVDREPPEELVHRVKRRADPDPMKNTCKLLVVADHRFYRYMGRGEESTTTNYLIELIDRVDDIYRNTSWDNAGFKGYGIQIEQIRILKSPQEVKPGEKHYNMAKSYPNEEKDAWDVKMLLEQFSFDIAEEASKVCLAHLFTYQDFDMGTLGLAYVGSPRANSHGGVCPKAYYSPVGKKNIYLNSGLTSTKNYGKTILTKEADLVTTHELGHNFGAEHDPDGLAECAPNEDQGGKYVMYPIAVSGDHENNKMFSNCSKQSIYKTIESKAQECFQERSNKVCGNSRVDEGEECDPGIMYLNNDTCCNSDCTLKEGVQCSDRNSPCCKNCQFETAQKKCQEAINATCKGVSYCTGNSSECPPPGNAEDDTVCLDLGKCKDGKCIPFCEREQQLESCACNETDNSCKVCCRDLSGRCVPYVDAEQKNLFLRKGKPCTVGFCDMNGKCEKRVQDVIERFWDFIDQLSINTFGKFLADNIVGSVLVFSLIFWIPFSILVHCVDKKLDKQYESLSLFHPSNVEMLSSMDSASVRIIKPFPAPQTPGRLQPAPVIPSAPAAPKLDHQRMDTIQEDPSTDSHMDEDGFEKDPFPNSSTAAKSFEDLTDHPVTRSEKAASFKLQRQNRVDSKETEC

SMILES | IC50 [1] | IC50 ([2]; read-out: pIC50 (converted)) | IC50 [3] | IC50 ([2]; read-out: IC50)
Cc1cc(COc2ccc(S(=O)(=O)N3CCOC(C(=O)NO)C3)cc2)c2ccccc2n1 (stereo not given) | 180 nM |  |  | 
CC(=O)N1CC[C@@H](NS(=O)(=O)c2ccc(OCc3cc(C)nc4ccccc34)cc2)[C@@](C)(C(=O)NO)C1 |  | 6.31 nM | 1000 nM | 
C#CCN1CC[C@@H](NS(=O)(=O)c2ccc(OCc3cc(C)nc4ccccc34)cc2)[C@@](C)(C(=O)NO)C1 |  | 20 nM | 1000 nM | 
Cc1cc(COc2ccc(S(=O)(=O)N[C@@H]3[C@H]4CC[C@H](C4)[C@@H]3C(=O)NO)cc2)c2ccccc2n1 |  |  | 18 nM | 0.6 nM
CNC(=O)N1CC[C@@H](NS(=O)(=O)c2ccc(OCc3cc(C)nc4ccccc34)cc2)[C@@](C)(C(=O)NO)C1 |  | 3.98 nM | 1000 nM | 
Cc1cc(COc2ccc(S(=O)(=O)N[C@@H]3CCNC[C@]3(O)C(=O)NO)cc2)c2ccccc2n1 |  | 100 nM | 1000 nM | 
Cc1cc(COc2ccc(S(=O)(=O)N(C)[C@@H]3CCC[C@]3(CO)C(=O)NO)cc2)c2ccccc2n1 |  |  | 440 nM | 0.6 nM
Cc1cc(COc2ccc(S(=O)(=O)N3CCNC(C(=O)NO)C3)cc2)c2c(n1)CCCC2 (stereo not given) | 110 nM |  |  | 
Cc1cc(COc2ccc(S(=O)(=O)N[C@@H]3CCN(S(=O)(=O)C(C)C)C[C@]3(C)C(=O)NO)cc2)c2ccccc2n1 |  | 2.51 nM | 762 nM | 
Cc1cc(COc2ccc(S(=O)(=O)N[C@@H]3CCN(C(C)C)C[C@]3(C)C(=O)NO)cc2)c2ccccc2n1 |  | 200 nM | 1000 nM | 
Cc1cc(COc2ccc(S(=O)(=O)N[C@@H]3CN(C=O)CCC3C(=O)NO)cc2)c2ccccc2n1 (stereo not given in full) |  |  | 21 nM | 
Cc1cc(COc2ccc(S(=O)(=O)NC3CCN(CCO)CC3C(=O)NO)cc2)c2ccccc2n1 (stereo not given) |  | 3.16 nM | 180 nM | 
Cc1cc(COc2ccc(S(=O)(=O)N[C@@H]3CCC[C@]3(C)C(=O)NO)cc2)c2ccccc2n1 |  |  | 270 nM | 0.6 nM
Cc1cc(COc2ccc(S(=O)(=O)N[C@@H]3CCN(C(=O)OC(C)(C)C)C[C@@H]3C(=O)NO)cc2)c2ccccc2n1 |  |  | 460 nM | 0.5 nM
CC#CCOc1ccc(S(=O)(=O)[C@H]2C[C@@H](C(=O)NO)N(C(C)=O)C2)cc1 | > 10000 nM |  |  | 
CC(=O)N1CCN(C(=O)c2ccc(OCc3cc(C)nc4c3CCCC4)cc2)CC1C(=O)NO (stereo not given) | 760 nM |  |  | 
Cc1cc(COc2ccc(S(=O)(=O)N3CCCOC(C(=O)NO)C3)cc2)c2ccccc2n1 (stereo not given) | 71 nM |  |  | 
Cc1cc(COc2ccc(S(=O)(=O)N[C@H]3CCN(C(=O)NC(C)(C)C)C[C@H]3C(=O)NO)cc2)c2ccccc2n1 (relative stereo) |  |  | 30 nM | 0.6 nM
Cc1cc(COc2ccc(S(=O)(=O)N[C@@H]3CN(C(=O)OC(C)(C)C)C[C@@H]3C(=O)NO)cc2)c2ccccc2n1 (relative stereo) |  |  | 38 nM | 0.6 nM
Cc1cc(COc2ccc(S(=O)(=O)N[C@]3(C)CCCC[C@@H]3C(=O)NO)cc2)c2ccccc2n1 (racemic) |  |  | 25 nM | 0.6 nM

SMILES | IC50 [1] | IC50 ([2]; read-out: pIC50 (converted)) | IC50 [3] | IC50 ([2]; read-out: IC50)
CC(=O)N1CCCN(S(=O)(=O)c2ccc(OCc3cc(C)nc4ccccc34)cc2)CC1C(=O)NO (stereo not given) | 200 nM |  |  | 
Cc1cc(COc2ccc(S(=O)(=O)N(C)[C@@H]3CCC[C@@H]3C(=O)NO)cc2)c2ccccc2n1 (relative stereo) |  |  | 93 nM | 0.6 nM
CC[C@]1(C(=O)NO)CCC[C@H]1N(C)S(=O)(=O)c1ccc(OCc2cc(C)nc3ccccc23)cc1 |  | 10 nM | 1000 nM | 
Cc1cc(COc2ccc(S(=O)(=O)N[C@@H]3CCC[C@]3(O)C(=O)NO)cc2)c2ccccc2n1 |  |  | 82 nM | 
CC#CCOc1ccc(S(=O)(=O)[C@@H]2C[C@@H](C(=O)NO)N(C(C)=O)C2)cc1 | 10000 nM |  |  | 
Cc1cc(COc2ccc(S(=O)(=O)N3CCC(Cc4ccccc4)(C(=O)NO)C3)cc2)c2ccccc2n1 (stereo not given) | 42 nM |  |  | 
Cc1cc(COc2ccc(S(=O)(=O)N[C@@H]3CN(C(=O)NC(C)(C)C)CC[C@@H]3C(=O)NO)cc2)c2ccccc2n1 |  | 1.26 nM | 58 nM | 
Cc1cc(COc2ccc(S(=O)(=O)N[C@@H]3CCC[C@]3(F)C(=O)NO)cc2)c2ccccc2n1 |  |  | 19 nM | 0.6 nM
CC(=O)N1C[C@H](S(=O)(=O)c2ccc(OCc3cc(C)nc4c3CCCC4)cc2)C[C@@H]1C(=O)NO | > 10000 nM |  |  | 
CC(=O)N1C[C@@H](S(=O)(=O)c2ccc(OCc3cc(C)nc4c3CCCC4)cc2)C[C@@H]1C(=O)NO | > 10000 nM |  |  | 
Cc1cc(COc2ccc(S(=O)(=O)N[C@@H]3CNC[C@@H]3C(=O)NO)cc2)c2ccccc2n1 (relative stereo) |  |  | 90 nM | 4.7 nM
CC(=O)N1CCN(S(=O)(=O)c2ccc(OCc3cc(C)nc4c3CCCC4)cc2)CC1(C)C(=O)NO (stereo not given) | 30 nM |  |  | 
Cc1cc(COc2ccc(S(=O)(=O)N[C@@H]3CCCC[C@@H]3C(=O)NO)cc2)c2ccccc2n1 (relative stereo) |  |  | 80 nM | 1 nM
C#CCN1C[C@H](C(=O)NO)[C@H](NS(=O)(=O)c2ccc(OCc3cc(C)nc4ccccc34)cc2)C1 (relative stereo) |  |  | 90 nM | 
Cc1cc(COc2ccc(S(=O)(=O)N(C)C3C(C(=O)NO)[C@@H]4CC[C@H]3O4)cc2)c2ccccc2n1 (relative stereo; form 1) |  |  | 250 nM | 43 nM
Cc1cc(COc2ccc(C(=O)N3CCC(C(=O)NO)C3)cc2)c2c(n1)CCCC2 (stereo not given) | 6500 nM |  |  | 
CC(=O)N1CCC(NS(=O)(=O)c2ccc(OCc3cc(C)nc4ccccc34)cc2)C(C(=O)NO)C1 (stereo not given) |  | 1 nM | 20 nM | 
Cc1cc(COc2ccc(S(=O)(=O)N[C@@H]3CCOC[C@]3(C)C(=O)NO)cc2)c2ccccc2n1 |  |  | 1670 nM | 
CC#CCOc1ccc(S(=O)(=O)N2CCC(C(=O)NO)C2)cc1 (stereo not given) | > 10000 nM |  |  | 
Cc1cc(COc2ccc(S(=O)(=O)N(C)[C@H]3[C@@H](C(=O)NO)[C@@H]4CC[C@H]3O4)cc2)c2ccccc2n1 |  | 1 nM | 10 nM | 

SMILES | IC50 [1] | IC50 ([2]; read-out: pIC50 (converted)) | IC50 [3] | IC50 ([2]; read-out: IC50)
Cc1cc(COc2ccc(S(=O)(=O)N[C@H]3CCCC[C@@H]3C(=O)NO)cc2)c2ccccc2n1 (relative stereo) |  |  | 60 nM | 1.8 nM
CCC1(C(=O)NO)CCN(S(=O)(=O)c2ccc(OCc3cc(C)nc4ccccc34)cc2)C1 (stereo not given) | 16 nM |  |  | 
Cc1cc(COc2ccc(S(=O)(=O)N[C@@H]3COC[C@@H]3C(=O)NO)cc2)c2ccccc2n1 |  | 0.631 nM | 12 nM | 
Cc1cc(COc2ccc(S(=O)(=O)N(C)[C@@H]3CC=CC[C@@H]3C(=O)NO)cc2)c2ccccc2n1 (relative stereo) |  |  | 1000 nM | 
CCNC(=O)N1C[C@H](C(=O)NO)[C@H](NS(=O)(=O)c2ccc(OCc3cc(C)nc4ccccc34)cc2)C1 (relative stereo) |  | 1.26 nM | 51 nM | 
Cc1cc(COc2ccc(S(=O)(=O)N[C@@H]3CCOC[C@@]3(C)C(=O)NO)cc2)c2ccccc2n1 |  | 6.31 nM | 1920 nM | 
Cc1cc(COc2ccc(S(=O)(=O)N(C)[C@H]3CCCC[C@@H]3C(=O)NO)cc2)c2ccccc2n1 (relative stereo) |  |  | 911 nM | 1.4 nM
Cc1cc(COc2ccc(S(=O)(=O)N(C)[C@@H]3COC[C@@H]3C(=O)NO)cc2)c2ccccc2n1 (relative stereo) |  | 1.26 nM | 930 nM | 
Cc1cc(COc2ccc(S(=O)(=O)N(C)[C@@H]3CCOC[C@@H]3C(=O)NO)cc2)c2ccccc2n1 (relative stereo) |  |  | 1000 nM | 
Cc1cc(COc2ccc(S(=O)(=O)N3CCCC(C)(C(=O)NO)C3)cc2)c2c(n1)CCCC2 (stereo not given) | 40 nM |  |  | 
Cc1cc(COc2ccc(S(=O)(=O)N[C@@H]3CN(C=O)C[C@@H]3C(=O)NO)cc2)c2ccccc2n1 (relative stereo) |  |  | 20 nM | 
Cc1cc(COc2ccc(S(=O)(=O)N3CCC(CC(C)C)(C(=O)NO)C3)cc2)c2ccccc2n1 (stereo not given) | 35 nM |  |  | 
CC(=O)N1C[C@H](S(=O)(=O)c2ccc(OCc3cc(C)nc4c3CCCC4)cc2)C[C@H]1C(=O)NO | 3600 nM |  |  | 
Cc1cc(COc2ccc(S(=O)(=O)N[C@@H]3CCN(C=O)C[C@]3(C)C(=O)NO)cc2)c2ccccc2n1 |  |  | 1000 nM | 0.6 nM
CC#CCOc1ccc(S(=O)(=O)N2CCN(C(C)=O)C(C(=O)NO)C2)cc1 (stereo not given) | 1500 nM |  |  | 
CC#CCOc1ccc(S(=O)(=O)[C@H]2C[C@H](C(=O)NO)N(C(C)=O)C2)cc1 | > 10000 nM |  |  | 
CC#CCOc1ccc(S(=O)(=O)[C@@H]2C[C@H](C(=O)NO)N(C(C)=O)C2)cc1 | > 10000 nM |  |  | 
Cc1cc(COc2ccc(S(=O)(=O)N[C@@H]3CCOC[C@@H]3C(=O)NO)cc2)c2ccccc2n1 (relative stereo) |  |  | 17 nM | 
CC#CCOc1ccc(C(=O)N2CCC(C(=O)NO)C2)cc1 (stereo not given) | > 10000 nM |  |  | 
Cc1cc(COc2ccc(S(=O)(=O)N[C@@H]3CCN(C=O)C[C@@H]3C(=O)NO)cc2)c2ccccc2n1 |  |  | 7 nM | 
